Where two headings read alike, the source gives them in different places.
Columns and labels:
Assay type in all cases: cell-based
[1] = test system: HIV-1 reverse transcriptase mutant K103N; assay: High throughput cytopathic effect assay in MT-4 cells, K103N mutant; conditions: for EC50: Human immunodeficiency virus 1, MT4, 120 h, read-out: MT4 EC50 (nM) against K103N; for FC against mutant K103N: fold change of MT4 EC50 versus w.t. assay 2
Source text: (§1) Compounds were screened in a miniaturized, high throughput cytopathic effect assay for activity against HIV-1 HBX2 (wild type) and HIV-1 reverse transcriptase mutants K103N and Y181C. In Tables 1 and 2 below. “w.t.” refers to results of the tested compounds run with the wildtype 1 and “w.t, assay 2” refers results of the tested compounds run with the wildtype on the same day as the testing of the compounds with the mutants. Thus, “w.t, assay 2” was run under the same conditions as the testing of the compounds with the mutants and provides a direct comparison with the results from the testing with the mutants.
(§2) Ten-point serial dilutions of compounds with half-log step size were generated in DMSO. AZT ([…]) was used as the positive control and DMSO as the negative control. The Echo acoustic dispenser was used to deliver 200 nL of serially diluted compound into sterile 384 well tissue culture assay plates. Two million MT-4 cells were incubated with each of the 3 viruses at MOI of 0.0005 in separate 1 mL infection tubes for 1 hour at 37° C. The cells were diluted in cell culture medium (RPMI+10% FBS) to 50.000 cells/mL. The infected cells were added to 384 well assay plates containing serially dilute compounds. Assay plates were incubated for 5 days in a humidified incubator set at 37° C. and 5% CO2. To measure the cytopathic effect of HIV, 40 μL Cell TiterGlo was added to each well and the resulting luminescence signal is read with the Envision plate reader (Perkin Elmer). Data were normalized to positive and negative controls in each plate and expressed as % CPE Protection. EC50 values were defined as the compound concentration that caused a 50% decrease in luminescence signal, and were calculated by non-linear regression using Pipeline Pilot software by applying a four parameter fit equation (Accelrys, San Diego, Calif.).

[2] = test system: HIV-1 reverse transcriptase mutant Y181C; assay: High throughput cytopathic effect assay in MT-4 cells, Y181C mutant; conditions: for EC50: Human immunodeficiency virus 1, MT4, 120 h, read-out: MT4 EC50 (nM) against Y181C; for FC against mutant Y181C: fold change of MT4 EC50 versus w.t. assay 2
Source text: as §1, §2

[3] = test system: HIV-1 recombinant strain encoding reverse transcriptase mutation K103N/Y181C; assay: Resistance profile against HIV-1 RT mutants in MT-2 cells, K103N/Y181C; conditions: ratio of mean EC50 mutant/WT virus
Procedure: (§3) Compounds were tested for antiviral activity against a panel of NNRTI resistant viruses. A panel of 8 clonal site-directed mutant viruses representing the major resistance development pathways against rilpivirine (“RPV”), efavirenz (“EFV”), and nevirapine (“NVP”), containing both single and double mutations within HIV-1 reverse transcriptase was employed. Further details and background can be found in Janssen et al. J. Med. Chem, 2005, 48, 1901-1909; Das et al., Proc. Nat. Acad. Sci., 2008, vol., 105, no. 5, 1466-1471; and Kuroda et al., Nature Chemistry, 2013, DOI: 10.1038/NCHEM. 1559. […] HIV-1 recombinant strains encoding reverse transcriptase mutations K103N, Y181C, Y188L, G190A, K103N/Y181C, L1001/Y181C, E138K or E138KIM 184V were constructed by site-directed mutagenesis. Wild-type and mutant viruses were prepared by transfecting infectious proviral HXB2-based cDNA clones into MT-2 cells and harvesting the cell supernatants. MT-2 cells were infected with wild-type and mutant HIV-1 strains at a multiplicity of infection (MOI) of 0.005 by gentle mixing for 3 hours at 37° C. and then added at a density of 16,667 cells per well in 50 μL complete RPMI cell culture media (containing 10% fetal bovine serum (FBS) and 10% penicillin-streptomycin) to 96-well plates containing 50 μL of a 3-fold serial dilution of test compounds in RPMI medium. After 5 days of incubation at 37° C. in a humidified incubator in the presence of 5% CO2. 100 μL of Cell Titer-Glo™ Reagent (Promega Biosciences, Inc., Madison, Wis.) was added to each well and the relative light units (RLU) measured on an Envision plate reader. […] The EC50 value was defined as the compound concentration inducing a 50% decrease in virus replication. Data analysis for the antiviral activity observed in MT-2 cells was performed using XL-Fit™ software (IDBS, Guildford, Surrey, UK) to calculate EC50 from an 8-point dose-response curve using the following equation:
(§4) [formula] where y=virus inhibition, x=drug concentration, M=maximum inhibition, H=minimum inhibition and n=Hill coefficient, EC50 values (mean±standard deviation) were calculated from at least three independent experiments performed in triplicate. The level of resistance was calculated as a ratio of the mean EC50 for each mutant/WT virus. Results are disclosed in FIG. 1 and in Tables 3 and 4 below.

HIV-1 HBX2 (wild type) = assay: High throughput cytopathic effect assay in MT-4 cells, wild type HIV-1
Source text: as §1, §2

[4] = test system: HIV-1 recombinant strain encoding reverse transcriptase mutation K103N; assay: Resistance profile against HIV-1 RT mutants in MT-2 cells, K103N; conditions: ratio of mean EC50 mutant/WT virus
Procedure: as §3, §4

[5] = test system: HIV-1 recombinant strain encoding reverse transcriptase mutation G190A; assay: Resistance profile against HIV-1 RT mutants in MT-2 cells, G190A; conditions: ratio of mean EC50 mutant/WT virus
Procedure: as §3, §4

[6] = test system: HIV-1 recombinant strain encoding reverse transcriptase mutation Y188L; assay: Resistance profile against HIV-1 RT mutants in MT-2 cells, Y188L; conditions: ratio of mean EC50 mutant/WT virus
Procedure: as §3, §4

[7] = test system: HIV-1 recombinant strain encoding reverse transcriptase mutation L100I/Y181C; assay: Resistance profile against HIV-1 RT mutants in MT-2 cells, L100I/Y181C; conditions: ratio of mean EC50 mutant/WT virus
Procedure: as §3, §4

[8] = test system: HIV-1 recombinant strain encoding reverse transcriptase mutation Y181C; assay: Resistance profile against HIV-1 RT mutants in MT-2 cells, Y181C; conditions: ratio of mean EC50 mutant/WT virus
Procedure: as §3, §4

hERG channels = molecular target: T1, hERG channels (Homo sapiens, UniProt Q12809); assay: hERG assay, whole cell recordings in CHO cell line stably expressing hERG channels; conditions: CHO cells, whole cell patch clamp; greater than values indicate the maximum achievable concentration in the assay
T1 construct: host or cells: CHO cell line stably expressing hERG
Procedure: AVIVA's CHO cell line, which stably expresses hERG channels, was used for the study. Cells were cultured in DMEM/F12 containing 10% FBS, 1% penicillin/streptomycin and 500 μg/ml G418. Before testing, cells were harvested using Accumax (Innovative Cell Technologies).
External Solution: 2 mM CaCl2; 2 mM MgCl2; 4 mM KCl; 150 mM NaCl; 10 mM Glucose; 10 mM HEPES; 305-315 mOsm; pH 7.4 (adjusted with 5M NaOH.)
Internal Solution: 140 mM KCl; 10 mM MgCl2; 6 mM EGTA; 5 mM HEPES-Na; 5 mM ATP-Mg; 295-305 mOsm; pH 7.25 (adjusted with 1M KOH).
Whole cell recordings were performed using PX 7000A (Axon Instruments) with AVIVA's SealChip™ technology. Cells were voltage clamped at a holding potential of −80 mV. The hERG current was then activated by a depolarizing step to −50 mV for 300 ms. This first step at −50 mV was used as a baseline for measuring peak amplitude of the tail current. Next, a voltage step to +20 mV was applied for 5 s to activate the channels. Finally, a step back to −50 mV for 5 s removed activation and the deactivating tail current was recorded.
All test articles were prepared from 10 mM DMSO stock solutions. Solutions were mixed by sonication for 20 min, followed by vigorous vortexing. Prior to testing, compounds were diluted to test concentrations in glass vials using External Solution. Dilutions were prepared no longer than 20 min prior to use.
After achieving whole cell configuration, cells were monitored for 90 s to assess stability and then washed with External Solution for 66 s. The voltage protocol was then applied to the cells every 12 s throughout the procedure. Only stable cells with recording parameters above threshold were allowed to enter the drug addition procedure.
External solution containing 0.1% DMSO (vehicle) was applied to the cells to establish a baseline. After allowing the current to stabilize for 3 to 10 min, test articles were applied. Test article solutions were added to cells in 4 separate additions. Cells were kept in test solution until effect of the test article reached steady state, to a maximum of 12 min. Next, 1 μM cisapride (positive control) was added. Finally, washout with External Solution was performed until the recovery current reached steady state.
Data analysis was performed using DataXpress (Axon Instruments), Clampfit (Axon Instruments) and Origin (OriginLab Corporation) software. The greater than values in Table 5 indicate the maximum achievable concentration in the assay (e.g., compounds achieving their solubility limit).

[9] = Human immunodeficiency virus 1, MT4, 120 h, MT-4 cells, 5 days, cytopathic effect, Cell TiterGlo, read-out: MT4 EC50 (nM) against w.t.
[10] = Human immunodeficiency virus 1, MT4, read-out: MT4 EC50 (nM) against w.t. assay 2

T1 sequence (Q12809 whole entry): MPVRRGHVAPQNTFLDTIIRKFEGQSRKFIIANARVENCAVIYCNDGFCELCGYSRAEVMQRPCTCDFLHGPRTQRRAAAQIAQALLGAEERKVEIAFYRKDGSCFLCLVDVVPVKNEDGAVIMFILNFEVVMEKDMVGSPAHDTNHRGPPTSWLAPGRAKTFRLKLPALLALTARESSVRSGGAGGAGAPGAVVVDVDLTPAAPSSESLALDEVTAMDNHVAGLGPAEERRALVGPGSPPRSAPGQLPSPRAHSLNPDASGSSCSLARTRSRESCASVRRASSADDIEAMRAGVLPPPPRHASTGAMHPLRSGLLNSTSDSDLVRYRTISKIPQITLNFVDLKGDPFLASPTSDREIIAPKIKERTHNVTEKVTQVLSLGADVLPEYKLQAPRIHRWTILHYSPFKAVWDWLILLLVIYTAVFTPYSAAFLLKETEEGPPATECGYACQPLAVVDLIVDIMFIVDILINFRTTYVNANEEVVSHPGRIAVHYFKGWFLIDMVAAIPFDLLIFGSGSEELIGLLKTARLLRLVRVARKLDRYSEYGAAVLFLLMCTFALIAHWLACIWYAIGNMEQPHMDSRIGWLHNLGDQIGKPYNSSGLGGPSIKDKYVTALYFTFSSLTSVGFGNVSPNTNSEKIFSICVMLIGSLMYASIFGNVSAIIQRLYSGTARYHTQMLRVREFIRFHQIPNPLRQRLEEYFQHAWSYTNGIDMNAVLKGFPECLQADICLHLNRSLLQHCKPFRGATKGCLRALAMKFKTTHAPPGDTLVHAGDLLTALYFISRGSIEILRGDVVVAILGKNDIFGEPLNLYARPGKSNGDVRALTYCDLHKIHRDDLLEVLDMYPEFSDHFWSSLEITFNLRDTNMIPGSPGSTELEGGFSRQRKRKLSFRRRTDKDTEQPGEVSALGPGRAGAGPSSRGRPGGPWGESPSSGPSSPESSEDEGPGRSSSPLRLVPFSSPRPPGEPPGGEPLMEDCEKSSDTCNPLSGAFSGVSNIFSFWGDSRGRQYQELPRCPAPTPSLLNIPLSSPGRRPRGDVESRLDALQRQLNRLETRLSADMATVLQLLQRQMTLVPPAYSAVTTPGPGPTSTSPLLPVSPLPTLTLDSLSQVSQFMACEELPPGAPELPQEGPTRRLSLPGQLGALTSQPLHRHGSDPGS

Row | Compound | EC50 [1] | FC against mutant K103N [1] | EC50 [2] | FC against mutant Y181C [2] | Biology resistance panel-low throughput fold change (FC) K103N/Y181C [3] | EC50 (HIV-1 HBX2 (wild type); [9]) | EC50 (HIV-1 HBX2 (wild type); [10]) | Biology resistance panel-low throughput fold change (FC) K103N [4] | Biology resistance panel-low throughput fold change (FC) G190A [5] | Biology resistance panel-low throughput fold change (FC) Y188L [6] | Biology resistance panel-low throughput fold change (FC) L100I/Y181C [7] | Biology resistance panel-low throughput fold change (FC) Y181C [8] | hERG (hERG channels) | EC50 (HIV-1 HBX2 (wild type); Human immunodeficiency virus 1, MT4, 120 h, read-out: MT4 EC50 (nM) against w.t.)
1 | Cc1cc(/C=C/C#N)cc(C)c1-c1cccc2cnc(Nc3ccc(C#N)cc3)nc12 [Compound 1, (E)-4-((8-(4-(2-Cyanovinyl)-2,6-dimethylphenyl)quinazolin-2-yl)amino)benzonitrile] | 8.8 nM | 1.4 | 17.8 nM | 2.9 | 14.8 | 3 nM | 6.2 nM | 1.3 | 0.6 | 15.2 | 6.9 | 5.7 | – | –
2 | Cc1cc(/C=C/C#N)cc(C)c1-c1cccc2c(N)nc(Nc3ccc(C#N)nc3)nc12 [Compound 9, (E)-5-((4-Amino-8-(4-(2-cyanovinyl)-2,6-dimethylphenyl)quinazolin-2-yl)amino)picolinonitrile] | 3.5 nM | 1.1 | 10.8 nM | 3.4 | 14.7 | 3.4 nM | 3.2 nM | 1.0 | – | 11.4 | 4.0 | 5.7 | >3 µM | –
3 | Cc1cc(/C=C/C#N)cc(C)c1-c1cccc2c(N)nc(Nc3ccc(C#N)cn3)nc12 [Compound 10, (E)-6-((4-Amino-8-(4-(2-cyanovinyl)-2,6-dimethylphenyl)quinazolin-2-yl)amino)nicotinonitrile] | 2.9 nM | 1.0 | 29.3 nM | 9.8 | 19.9 | 2.8 nM | 3 nM | 0.9 | – | 53.6 | 3.8 | 11.9 | >3 µM | –
4 | Cc1cc(/C=C/C#N)cc(C)c1-c1cccc2c(N)nc(Nc3ccc(C#N)nn3)nc12 [Compound 11, (E)-6-((4-Amino-8-(4-(2-cyanovinyl)-2,6-dimethylphenyl)quinazolin-2-yl)amino)pyridazine-3-carbonitrile] | 5.2 nM | 1.2 | 126 nM | 29.8 | 157.0 | 4.7 nM | 4.2 nM | 2.1 | – | 161.0 | 85.0 | 154.0 | >3 µM | –
5 | Cc1cc(/C=C/C#N)cc(C)c1-c1cccc2c(N)nc(Nc3cnc(C#N)cn3)nc12 [Compound 12, (E)-5-((4-Amino-8-(4-(2-cyanovinyl)-2,6-dimethylphenyl)quinazolin-2-yl)amino)pyrazine-2-carbonitrile] | 1.7 nM | 0.9 | 12.5 nM | 6.9 | – | – | 1.8 nM | – | – | – | – | – | >3 µM | 1.8 nM
6 | Cc1cc(/C=C/C#N)cc(C)c1-c1cccc2cnc(Nc3ccc(C#N)cn3)nc12 [Compound 13, (E)-6-((8-(4-(2-Cyanovinyl)-2,6-dimethylphenyl)quinazolin-2-yl)amino)nicotinonitrile] | 5.9 nM | 1.4 | 27.4 nM | 6.4 | – | 3.2 nM | 4.3 nM | – | – | – | – | – | 1.3 µM | –
7 | Cc1ccnc2c1NC(=O)c1cccnc1N2C1CC1 [Nevirapine, reference compound] | – | – | – | – | – | 65 nM | – | 87.0 | 183.0 | >229 | >229 | >229 | – | –

— patent US10548898B2, “Quinazoline compounds” (Gilead Sciences, Inc., priority 2014, dated 2020)
